This note sets out measurements from a melting point compilation (Tetko et al.; mined from patent text by program, amines drawn as free bases though some values may be those of a salt).

For orientation: melting point means the temperature, or range, at which the solid turns liquid.

`CCC(COC)(OC)c1cc(F)cc(OCc2ccccc2)c1` (centres undefined) gave a melting point of 61 to 62 °C.
In the case of `CC(=O)Oc1ccc2nc(S(N)(=O)=O)sc2c1`, the melting point is 193 to 194 °C.
To `O=Cc1cc2c(ccc3c4ccccc4ccc23)o1` belongs 169 °C; to `COc1cc(/C=C/C(=O)/C=C/c2ccc(OC(F)(F)F)cc2)ccc1O`, 93 to 95 °C.
To `O=C(O)c1cc(Br)c(Cl)cc1O` belongs 208 to 213 °C; to `Cc1nc(-c2ccccc2C(F)(F)F)c(-c2ccccc2C(F)(F)F)o1`, 100 to 102 °C.
As for `CCc1cccc(C)c1N(CCCC(=O)O)C(=O)CCN(C(C)=O)c1c(C)cccc1C`, the melting point is 139 to 141 °C.
The value for `O=C(O)CCc1cc2ccccc2s1` was 140 to 142 °C; that for `C=CC1CCC2c3ccc(OCC)c(F)c3OC2C1` (centres undefined) was 141 °C; that for `Cc1noc(-c2c(C)ncn2C)n1` was 95 °C.
With `COc1ccc(-c2coc3ccc(C(=O)NN)cc23)cc1`, the melting point was in the range of 184 to 185 °C.
To `CC(=O)N1CCN(c2cc3nc(C(C)(C)C)sc3cc2[N+](=O)[O-])CC1` belongs 166 to 168 °C; to `Cn1c2ccccc2c2c3c(c4c5ccccc5n(CCCCN)c4c21)C(=O)NC3=O`, 177 to 181 °C; to `O=C(O)c1ccc(CC2(Cc3ccc(C(=O)O)cc3)C(=O)N=C3C=CC=CN32)cc1`, more than 300 °C.
Molecule `COCc1c(C(O)c2ccccc2)ncc2c1c1cc(OCc3ccccc3)ccc1n2S(=O)(=O)c1ccc(C)cc1` (centres undefined) displayed a melting point of 146 to 147 °C.
For `O=CN1CCC(Oc2c(F)c(F)c(F)c(F)c2F)(c2ccccc2)CC1`, the melting point was in the range of 118 to 119 °C.
Molecule `Cc1cc(-c2c(-c3ccc(S(C)(=O)=O)cc3)cnn(-c3ccc(F)c(Cl)c3)c2=O)ccc1F` yielded a melting point of 207 to 208 °C.
As to `COC(=O)c1cc2cc(OC)c(OC)cc2c(-c2ccnc(-n3c(=O)cc(NCCCn4ccnc4)c4ccccc43)c2)c1C(=O)OC`, the melting point is 142 to 148 °C.
The value for `CSC1N=C(N)C=C(Cl)N1c1c([N+](=O)[O-])cc(C(F)(F)F)c(Cl)c1[N+](=O)[O-]` (centres undefined) was 171 to 175 °C; that for `C#Cc1cccc(Oc2ccc3c(c2)C(=O)N(c2cccc(C#C)c2)C3=O)c1` was 150 to 160 °C; that for `CCCC(O)c1cc2c(=O)n(NS(C)(=O)=O)c(=O)[nH]c2cc1C(F)(F)F` (centres undefined) was 223 to 226 °C.
To `Cc1noc(-c2ccccc2)c1CCC(N)=O` belongs 149 to 151 °C; to `Cc1ccc(S(=O)(=O)NCC(O)(Cn2cncn2)c2ccc(F)cc2F)cc1` (centres undefined), 130 to 136 °C; to `O=C(O)Cc1cc(C(=O)c2ccccc2)cc(Cl)c1O`, 131 °C.
`CCON1CC1C(N)=O` (centres undefined) showed a melting point of 50 to 54 °C.
The molecule `CCC[C@H]1CC[C@H](c2ccc(OCC)c(C#N)c2)CC1` had a melting point of 32 °C.
The value for `CCNC(=O)N1C(=O)Cc2cc(Cl)ccc21` was 121 to 122 °C; that for `COC(=O)[C@H](c1ccccc1Cl)N1CCc2sc(OC(=O)c3cccnc3)cc2C1` was 92 to 94 °C; that for `N#Cc1cc(-n2c3ccccc3[nH]c(=N)[nH]c3ccccc32)ccc1Cl` was 225 to 228 °C.
To `COc1c(C(=O)O)sc(C)c1C` belongs 142 to 143 °C; to `COc1ccc(C(=O)O)cc1C(=O)NCc1ccc(C(F)(F)F)cc1`, 236 °C.
`O=C1NCCNC1c1cn(Cc2ccccc2Cl)c2ccccc12` (centres undefined) returned a melting point of 181 °C.
To `Cc1cc(O)cc2c1N(C)C1N(C)CCC21C` (centres undefined) belongs 146 to 148 °C.
In turn, `CS(=O)(=O)c1ccc(C(Br)C(=O)c2ccc(F)cc2)cc1` (centres undefined) gave a melting point of 140 to 141 °C.
In turn, `CC(C)NCC(O)COc1ccc2c(c1)C(=O)OC2` (centres undefined) had a melting point of 95 to 97 °C.
For `O=C(O)Cn1c(=O)n(Cc2ccc(Br)cc2F)c(=O)c2ccc(Br)cc21`, the melting point worked out at 217 °C.
In the case of `O=C1CCCN1c1nc(-n2ccnc2)c(I)c(C(F)(F)F)n1`, the melting point was 195 to 197 °C.
The value for `CC(C)OC(=O)CCc1nc(-c2ccc(Cl)cc2)co1` was 30 to 31 °C.
The molecule `CCCNC(=O)CCc1ccc2ccn(Cc3ccc(C(=O)NS(=O)(=O)c4ccccc4C)cc3OC)c2c1` yielded a melting point of 110 °C.
`C=C1c2ccccc2CC(=O)c2ccccc21` gave a melting point of 84 to 86 °C.
As for `O=C1Cc2ccccc2Oc2ccccc2C1`, the melting point came to 86 °C.
The value for `Clc1ccc(-c2[nH]nc(N3CCNCC3)c2-c2ccncc2)cc1` was 264 to 265 °C.
Turning to `FC(F)(F)c1cccc(-c2ccnc3c(Br)cnn23)c1`, the melting point lay in the range of 138 to 140 °C.
`COC(=O)NC1=NCC(c2ccc(OC(C)C)cc2)N1C` (centres undefined) showed a melting point of 135 to 138 °C.
With `OCc1cn2c(n1)sc1ccccc12`, the melting point came to 131 °C.
With `CC(C)C(=O)c1c(C(C)(C)C)cc(C=[N+]([O-])C(C)(C)C)cc1C(C)(C)C`, the melting point lay within 197 to 208 °C.
On to `CCCn1c(=O)c2[nH]c(/C=C/c3ccc(OC)c4ccccc34)nc2n(CCC)c1=O`, for which the melting point was more than 280 °C.
Molecule `CNS(=O)(=O)c1ccc(Nc2nc(N)c(C(=O)c3sccc3C)s2)cc1` showed a melting point of 197 to 200 °C.
With `C=CCNc1nc(NCC=C)nc(N(CCCCCCN(c2nc(NCC=C)nc(NCC=C)n2)C2CC(C)(C)NC(C)(C)C2)C2CC(C)(C)NC(C)(C)C2)n1`, the melting point was 161 to 163 °C.
In turn, `Cc1cc(Oc2cccc(C(F)(F)F)c2)nn1C(=O)Nc1ccc(F)c(F)c1F` showed a melting point of 102 to 104 °C.
`CN1CC=C(c2c[nH]c3ccc(NC(=N)c4cccs4)cc23)CC1` had a melting point of 215 to 218 °C.
In the case of `COc1ccc(CSc2ccncc2)c2c1OCC2C` (centres undefined), the melting point fell in the range of 110 to 112 °C.
`CC(c1ccc2c(c1)Sc1ccccc1CC2)N(O)C(N)=O` (centres undefined): the melting point was 166 to 168 °C.
For `Cc1noc(NS(=O)(=O)c2ccc(-c3ccccn3)s2)c1Br`, the melting point is 186 to 188 °C.
`Cc1nc2cc(NCC(=O)C(C)(C)C)ccc2s1` displayed a melting point of 108 to 111 °C.
In turn, `O=C(Nc1ccc(Cl)cc1)c1cc(Br)c2cccnc2c1O` yielded a melting point of 213 to 215 °C.
Take `CC(C)Cn1c(CN)c(-c2ccccc2)c2cc(Br)ccc2c1=O`: the melting point lay in the range of 129 to 130 °C.
To `COC(=O)c1ccccc1S(=O)(=O)Cc1c(O)ccc2c1CCCC2=O` belongs 194 to 196 °C; to `CNC(=O)N1CC(Oc2ccccc2Cl)C1`, 130 to 132 °C.
`CN[C@H](Cc1ccc2ccccc2c1)C(=O)N1CCN(S(C)(=O)=O)C[C@H]1Cc1ccccc1` gave a melting point of 165 to 168 °C.
Molecule `CC(C)(C)OC(=O)N(OCc1ccccc1)C(=O)OC(C)(C)C` registered a melting point of 77.5 to 78.5 °C.
Take `COc1cc(C(N)=O)ccc1OCCCN1CCC(c2noc3cc(F)ccc23)CC1`: the melting point lay within 163 to 164 °C.
The molecule `OC(/C=C/c1cc(C(F)(F)F)ccc1Cl)(CF)CF` returned a melting point of 61 to 62 °C.
With `CC(C)OP(=O)(COCCOc1nc(N)nc(N)c1C=O)OC(C)C`, the melting point lay within 225 to 227 °C.
`CC1(C)OCc2cc(Cl)cc(C(C)(O)c3cn(C(c4ccccc4)(c4ccccc4)c4ccccc4)cn3)c2O1` (centres undefined) showed a melting point of 182 to 184 °C.
The molecule `Cc1nc(-c2ccc(Cl)cc2Cl)sc1C(=O)NCCCCN1CCC(c2ccc3c(c2OCCO)CCCC3)CC1` registered a melting point of 122 to 124 °C.
The value for `CC(C)(C)c1nc(C[C@@H]2CC[C@](C)(NCC(=O)N3C[C@@H](F)C[C@H]3C#N)C2(C)C)no1` was 152 to 154 °C; that for `O=Cc1ccc(OCCc2coc(-c3ccccc3)n2)cc1` was 92 to 97 °C.
In the case of `Cc1onc(-c2c(F)cccc2Cl)c1C(=O)CBr`, the melting point was 74 to 75 °C.
Consider `COc1ccc(Cl)cc1C(=O)NCCOc1ccc(CC2SC(=O)NC2=O)cc1` (centres undefined), for which the melting point is 66 to 67 °C.
`CSc1cc(C(C)(C)C)c(O)c(C(C)(C)C)c1` had a melting point of 69 to 71 °C.
To `O=C1C=C(CCCCC#CCCCC#CCO)C(=O)c2ccccc21` belongs 88 to 89.5 °C; to `CC(C)c1c(Cl)[nH]c(=O)[nH]c1=O`, 250 to 251 °C; to `CCCC=Cc1c(C(C)C)nc(C(C)C)c(CO)c1-c1cccc(F)c1`, 117 to 118 °C.
Molecule `CS(=O)(=O)CC(=O)c1ccc(NS(C)(=O)=O)c(Oc2ccc(F)cc2F)c1` gave a melting point of 162 to 163 °C.
For `CCCCCCCCCCCCCCCCCCOc1cc(OCCCOc2ccc(S(C)(=O)=O)cc2)cc(N(CC(=O)OC)CC(=O)OC)c1`, the melting point lay within 70 to 72 °C.
For `COc1cccc(CN2N=C(c3ccc(OC)c(OC)c3)[C@@H]3CCCC[C@@H]3C2=O)c1` (relative stereo), the melting point was 115 °C.
Take `O=C(O)c1ccc2c(c1)C(=C(Cl)Cl)OC(=C(Cl)Cl)O2`: the melting point lay in the range of 199 to 200 °C.
Regarding `c1ccc(CCc2ccc[nH]2)cc1`, the melting point is 40 to 42 °C.
As to `OC1CSC(Oc2cc(F)ccc2-c2ccncc2)C(O)C1O` (centres undefined), the melting point turned out to be 209 °C.
For the molecule `Cc1c(-c2ccccc2)[nH]c(N)c1C(N)=O`, the melting point lay in the range of 195 to 197 °C.
`CCc1nc2c(N)nc3cc(-c4ccncc4)ccc3c2n1CC(C)(C)O` had a melting point of more than 250 °C.
For the molecule `NC(=O)NCCCCCC1CCSS1` (centres undefined), the melting point lay in the range of 74 to 78 °C.
As for `CC(=O)C(C)(N=Nc1ccc(C(O)(C(F)(F)F)C(F)(F)F)cc1)C(N)=O` (centres undefined), the melting point was in the range of 148 to 152 °C.
To `CCC(C(=O)N(C)C)n1cc(C(C)C)c(-c2ccccc2)n1` (centres undefined) belongs 89 to 90 °C.
Molecule `Cn1nc(CO)cc1OCCCN1CCN(c2cccc3sccc23)CC1` returned a melting point of 124 to 126 °C.
Take `CCc1c(O)cc(O)c(C(=O)c2ccc(OC)cc2)c1CC(=O)N(CCO)CCN1CCOCC1`: the melting point fell in the range of 235 to 237 °C.
The value for `COc1ccc(-c2ccc(C(=O)Nc3cc4ncc(CN5CCCC5)cc4cc3F)c(F)c2)cc1` was 174 to 176 °C; that for `CCOC(=O)c1cnn2c(C(=O)N3CCN(C(=O)OC(C)(C)C)CC3)c(Cc3cccc(F)c3C)c(-c3ccccc3)c2c1Cl` was 88 to 90 °C.
